Structures can show the parent of a compound that is named as a salt.
Legend:
[1] = target: T1, Recombinant human IKKβ (residues 1-737) (Homo sapiens, UniProt O14920); test: IKK2 assay (TR-FRET); format: biochemical; settings: ATP 1 μM final, read-out: pIC50 against IKK2 (converted)
T1 construct: Recombinant human IKKβ (residues 1-737); GST (C); made in house
T1 sequence (O14920 1-737): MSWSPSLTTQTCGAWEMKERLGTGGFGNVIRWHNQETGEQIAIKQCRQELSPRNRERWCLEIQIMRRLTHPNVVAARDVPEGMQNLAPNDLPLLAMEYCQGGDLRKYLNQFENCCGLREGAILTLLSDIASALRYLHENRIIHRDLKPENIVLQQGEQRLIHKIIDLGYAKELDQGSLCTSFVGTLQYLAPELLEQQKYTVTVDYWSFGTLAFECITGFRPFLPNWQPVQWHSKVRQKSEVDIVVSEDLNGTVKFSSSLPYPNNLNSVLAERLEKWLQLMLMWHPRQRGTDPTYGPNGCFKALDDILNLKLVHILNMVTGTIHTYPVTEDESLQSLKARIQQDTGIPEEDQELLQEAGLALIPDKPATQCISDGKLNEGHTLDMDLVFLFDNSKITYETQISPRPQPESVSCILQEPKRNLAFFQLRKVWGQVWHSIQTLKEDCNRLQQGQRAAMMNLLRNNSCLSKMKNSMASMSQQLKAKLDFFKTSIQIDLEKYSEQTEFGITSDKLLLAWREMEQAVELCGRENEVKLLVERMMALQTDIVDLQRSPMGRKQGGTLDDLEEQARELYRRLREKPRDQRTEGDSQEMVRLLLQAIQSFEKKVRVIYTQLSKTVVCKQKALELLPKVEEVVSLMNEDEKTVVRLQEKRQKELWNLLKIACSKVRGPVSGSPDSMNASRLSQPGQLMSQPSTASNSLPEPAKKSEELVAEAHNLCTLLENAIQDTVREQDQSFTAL
Summary of the method: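 Baculovirus-expressed C-terminal GST-tagged IKKβ (0.5-5 nM final) in HEPES pH 7.4, MgCl2, CHAPS, DTT, BSA with 1.7% DMSO; 25 nM GST-IB substrate and 1 μM ATP, 15 min at room temperature. EDTA stop; phospho-Ser32/36 detected by Eu-antibody/APC-anti-GST TR-FRET, 665/620 nm ratio.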

[2] = tested on: human monocyte stimulated cytokine production (TNF-α); test: Monocyte assay (LPS-stimulated TNF-α production); format: cell-based; settings: for IC50: 24 h, 200 ng/mL LPS, TNF-α by ELISA; for inhibition at 0.3 µM: read-out: inhibition at 300 nM in the monocyte assay
Method: Effect of IKK-β inhibition on human monocyte stimulated cytokine production was assessed as follows: Monocytes were isolated from heparinized whole blood by Ficoll gradient, followed by purification of CD14+ cells using MACS magnetic cell separation beads. Isolated monocytes were then adhered to 96-well culture plates at 1×10^6 cells/mL in RPMI 1640 10% FBS (JRH Biosciences, Lenexa Kans.) for 2 h. Test compounds are added to the wells 30 minutes prior to stimulation with a final vehicle concentration of 0.1% DMSO. Monocytes were activated by the addition of 200 ng/mL endotoxin (LPS; E. coli serotype 026:B6)(Sigma, St. Louis, Mo.) and incubated for 24 hrs at 37 C. Cell-free supernates were analyzed by ELISA for TNF-α using Pharmingen matched pair Abs. Viability of the cells was determined by 10% trypan blue exclusion.

Structure (SMILES)	IC50 [1] [µM]	IC50 [2] [µM]	inhibition at 0.3 µM [2] [%]
CCS(=O)(=O)N1CCC(c2c[nH]c3c(C(N)=O)cc(-c4cc(CNCCC#N)ccc4F)cc23)CC1 [Example 35, 5-(5-{[(2-cyanoethyl)amino]methyl}-2-fluorophenyl)-3-[1-(ethylsulfonyl)-4-piperidinyl]-1H-indole-7-carboxamide trifluoroacetate]	≤ 10	> 1	
CCS(=O)(=O)N1CCC(c2c[nH]c3c(C(N)=O)cc(-c4cc(CNCC(F)(F)F)ccc4F)cc23)CC1 [Example 36, 3-[1-(ethylsulfonyl)-4-piperidinyl]-5-(2-fluoro-5-{[(2,2,2-trifluoroethyl)amino]methyl}phenyl)-1H-indole-7-carboxamide trifluoroacetate]	≤ 10	> 1	
CCS(=O)(=O)N1CCC(c2c[nH]c3c(C(N)=O)cc(-c4cccc(CN(C)CC(N)=O)c4)cc23)CC1 [Example 39, 5-(3-{[(2-amino-2-oxoethyl)(methyl)amino]methyl}phenyl)-3-[1-(ethylsulfonyl)-4-piperidinyl]-1H-indole-7-carboxamide trifluoroacetate]	≤ 10		0 to 60
CCS(=O)(=O)N1CCC(c2c[nH]c3c(C(N)=O)cc(-c4csc(CNCC(F)(F)F)n4)cc23)CC1 [Example 40, 3-[1-(ethylsulfonyl)-4-piperidinyl]-5-(2-{[(2,2,2-trifluoroethyl)amino]methyl}-1,3-thiazol-4-yl)-1H-indole-7-carboxamide trifluoroacetate]	≤ 10		0 to 60
CCS(=O)(=O)N1CCC(c2c[nH]c3c(C(N)=O)cc(-c4csc(CN(C)CCS(=O)(=O)c5ccccc5)c4)cc23)CC1 [Example 45, 3-[1-(ethylsulfonyl)-4-piperidinyl]-5-[5-({methyl[2-(phenylsulfonyl)ethyl]amino}methyl)-3-thienyl]-1H-indole-7-carboxamide trifluoroacetate]	≤ 10		0 to 60
CCS(=O)(=O)N1CCC(c2c[nH]c3c(C(N)=O)cc(-c4csc(CN5CCCC5c5ccccc5)c4)cc23)CC1 (stereo not shown) [Example 46, 3-[1-(ethylsulfonyl)-4-piperidinyl]-5-{5-[(2-phenyl-1-pyrrolidinyl)methyl]-3-thienyl}-1H-indole-7-carboxamide]	≤ 10		0 to 60
CCS(=O)(=O)N1CCC(c2c[nH]c3c(C(N)=O)cc(-c4csc(CN5CCCC5CN5CCCCC5)c4)cc23)CC1 (stereo not shown) [Example 47, 3-[1-(ethylsulfonyl)-4-piperidinyl]-5-(5-{[2-(1-piperidinylmethyl)-1-pyrrolidinyl]methyl}-3-thienyl)-1H-indole-7-carboxamide]	≤ 10		0 to 60
CCS(=O)(=O)N1CCC(c2c[nH]c3c(C(N)=O)cc(-c4csc(CN5CCC[C@@H]5C(N)=O)c4)cc23)CC1 [Example 48, 5-(5-{[(2R)-2-(aminocarbonyl)-1-pyrrolidinyl]methyl}-3-thienyl)-3-[1-(ethylsulfonyl)-4-piperidinyl]-1H-indole-7-carboxamide]	≤ 10		0 to 60

The next lines start with results.

IC50 [1] [µM]	IC50 [2] [µM]	Structure (SMILES)	inhibition at 0.3 µM [2] [%]
≤ 10	≤ 1.5	CCC(CC)NCc1cccc(-c2cc(C(N)=O)c3[nH]cc(C4CCN(S(=O)(=O)CC)CC4)c3c2)c1 [Example 26, 5-(3-{[(1-ethylpropyl)amino]methyl}phenyl)-3-[1-(ethylsulfonyl)-4-piperidinyl]-1H-indole-7-carboxamide]	
≤ 10	≤ 1.5	CCS(=O)(=O)N1CCC(c2c[nH]c3c(C(N)=O)cc(-c4ccc(CN5CCCCC5)cc4)cc23)CC1 [Example 27, 3-[1-(ethylsulfonyl)-4-piperidinyl]-5-[4-(1-piperidinylmethyl)phenyl]-1H-indole-7-carboxamide]	
≤ 10	≤ 1.5	CCS(=O)(=O)N1CCC(c2c[nH]c3c(C(N)=O)cc(-c4cccc(CNC)c4)cc23)CC1 [Example 28, 3-[1-(ethylsulfonyl)-4-piperidinyl]-5-{3-[(methylamino)methyl]phenyl}-1H-indole-7-carboxamide]	
≤ 10	≤ 1.5	CCS(=O)(=O)N1CCC(c2c[nH]c3c(C(N)=O)cc(-c4ccc(CN5CCOCC5)cc4)cc23)CC1 [Example 29, 3-[1-(ethylsulfonyl)-4-piperidinyl]-5-[4-(4-morpholinylmethyl)phenyl]-1H-indole-7-carboxamide]	
≤ 10	≤ 1.5	CCS(=O)(=O)N1CCC(c2c[nH]c3c(C(N)=O)cc(-c4ccc(CN)cc4)cc23)CC1 [Example 30, 5-[4-(aminomethyl)phenyl]-3-[1-(ethylsulfonyl)-4-piperidinyl]-1H-indole-7-carboxamide]	
≤ 10	≤ 1.5	CCS(=O)(=O)N1CCC(c2c[nH]c3c(C(N)=O)cc(-c4cccc(CNC5CC5)c4)cc23)CC1 [Example 31, 5-{3-[(cyclopropylamino)methyl]phenyl}-3-[1-(ethylsulfonyl)-4-piperidinyl]-1H-indole-7-carboxamide]	
≤ 10	≤ 1.5	CCS(=O)(=O)N1CCC(c2c[nH]c3c(C(N)=O)cc(-c4ccc5c(c4)C(NCC(C)C)CC5)cc23)CC1 (stereo not shown) [Example 33, 3-[1-(ethylsulfonyl)-4-piperidinyl]-5-{3-[(2-methylpropyl)amino]-2,3-dihydro-1H-inden-5-yl}-1H-indole-7-carboxamide trifluoroacetate]	
≤ 10	≤ 1.5	CCS(=O)(=O)N1CCC(c2c[nH]c3c(C(N)=O)cc(-c4ccc5c(c4)CNCC5)cc23)CC1 [Example 37, 3-[1-(ethylsulfonyl)-4-piperidinyl]-5-(1,2,3,4-tetrahydro-7-isoquinolinyl)-1H-indole-7-carboxamide trifluoroacetate]	
≤ 10	≤ 1.5	CCS(=O)(=O)N1CCC(c2c[nH]c3c(C(N)=O)cc(-c4cccc(CNCC(F)(F)F)c4)cc23)CC1 [Example 38, 3-[1-(ethylsulfonyl)-4-piperidinyl]-5-(3-{[(2,2,2-trifluoroethyl)amino]methyl}phenyl)-1H-indole-7-carboxamide trifluoroacetate]	
≤ 10	≤ 1.5	CCS(=O)(=O)N1CCC(c2c[nH]c3c(C(N)=O)cc(-c4csc(CN(C)C5CCN(C)CC5)c4)cc23)CC1 [Example 42, 3-[1-(ethylsulfonyl)-4-piperidinyl]-5-(5-{[methyl(1-methyl-4-piperidinyl)amino]methyl}-3-thienyl)-1H-indole-7-carboxamide trifluoroacetate]	
≤ 10	≤ 1.5	CCS(=O)(=O)N1CCC(c2c[nH]c3c(C(N)=O)cc(-c4csc(CN(C)CCC#N)c4)cc23)CC1 [Example 43, 5-(5-{[(2-cyanoethyl)(methyl)amino]methyl}-3-thienyl)-3-[1-(ethylsulfonyl)-4-piperidinyl]-1H-indole-7-carboxamide trifluoroacetate]	
≤ 10	≤ 1.5	CCS(=O)(=O)N1CCC(c2c[nH]c3c(C(N)=O)cc(-c4csc(CN(C)CC(N)=O)c4)cc23)CC1 [Example 44, 5-(5-{[(2-amino-2-oxoethyl)(methyl)amino]methyl}-3-thienyl)-3-[1-(ethylsulfonyl)-4-piperidinyl]-1H-indole-7-carboxamide trifluoroacetate]	

Reference: US8063071B2 (GlaxoSmithKline, LLC, priority 2007, dated 2011)
